Test results published in patent publication US20250367157A1, “COMPOSITION FOR USE IN THE TREATMENT OF DISEASES ASSOCIATED WITH DYSFUNCTION OF MITOCHONDRIAE” (IUF LEIBNIZ-INSTITUT FÜR UMWELTMEDIZINISCHE FORSCHUNG GMBH, priority 2022, published 2025).

Key:
[1] = system: primary XPA-deficient human fibroblasts; test: RNA isolation and real-time PCR, XPA fibroblasts; assay type: cell-based; details: 24 hours after UVB, Choline 100 mM, alone or combined; for RNA levels of PKM1, PKM2, MT-ATP6, MT-ATP8, SOD2, AKR1B1, HSPA2, TFPI2: Acetate 10 mM, FIG. 3; for RNA levels of CRYAB, HSPA2, ISYNA1: DMKG 10 mM, FIG. 9
Description: (§1) 200 ng of purified RNA were used for cDNA synthesis using SuperScript reverse transcriptase (Thermo Fisher). Expression levels of the genes PKM1, PKM2, MT-ATP6, MT-ATP8, MT-ND1, MT-ND3, TFAM, SOD2, AKR1B1, HSPA2 and TFPI2 were analyzed using a CFX Connect Real-Time PCR detection system and SYBR Green Supermix (both from Bio-Rad). Expression levels of the genes mentioned above were normalized in comparison to the housekeeper genes 18S (for experiments with XPA-deficient fibroblasts) or β2-microglobulin (for experiments with CSB-deficient fibroblasts).
200 ng of purified RNA were used for cDNA synthesis using SuperScript reverse transcriptase (Thermo Fisher). Expression levels of selected genes were analyzed using a CFX Connect Real-Time PCR detection system and SYBR Green Supermix (both from Bio-Rad). Expression levels of the selected genes were normalized in comparison to the housekeeper gene 18S.

[2] = system: primary XPA-deficient human fibroblasts; details: Choline 100 mM, Acetate 10 mM, alone or combined; FIG. 2 B, FIG. 7 B
Description: Medium was removed and cells received growth medium (1% FCS) containing either Choline (100 mM), Acetate (10 mM), or a combination of Choline (100 mM) and Acetate (10 mM) (Chol/Ac). Control cells received normal growth medium supplied with 1% FCS. 24 hours later, cells received fresh medium containing the respective compounds and were incubated for another 24 hours. The cells were washed with PBS and fixed with 2% paraformaldehyde. For immunofluorescence staining of ATP and the ATP5A subunit of the mitochondrial ATP synthase, cells were permeabilized with PBS containing 0.1% Triton X-100 and incubated with an anti-ATP antibody raised in rabbit (MyBioSource) and an anti-ATP5A antibody raised in mouse (Abcam) overnight at 4° C. Next day, antibodies were removed, and cells were washed three times with PBS containing 0.1% Triton X-100. Cells were incubated with anti-mouse and anti-rabbit secondary antibodies either labeled with a green (Alexa Fluor 488, Thermo Fisher) or with a red fluorescence dye (Alexa Fluor 594, Thermo Fisher) for 2 hours at room temperature. Antibodies were removed and cells were washed three times with PBS containing 0.1% Triton X-100. Slides were mounted using an anti-fade mounting medium (Southern Biotech) and analyzed with a fluorescence microscope (Zeiss).

[3] = system: primary CSB-deficient human fibroblasts; test: RNA isolation and real-time PCR, CSB fibroblasts; assay type: cell-based; details: Choline 100 mM, alone or combined
Description: as §1
200 ng of purified RNA were used for cDNA synthesis using SuperScript reverse transcriptase (Thermo Fisher). Expression levels of selected genes were analyzed using a CFX Connect Real-Time PCR detection system and SYBR Green Supermix (both from Bio-Rad).

[4] = system: primary normal human dermal fibroblasts (NHF); test: ATP immunofluorescence microscopy, NHF; assay type: cell-based; details: Choline 100 mM, Acetate 10 mM, alone or combined
Description: Primary NHF and XPA-deficient fibroblasts were grown on chamber glass slides (Sarstedt) in growth medium containing 15% FCS. 48 hours before UVB irradiation, medium was removed, cells were washed with PBS and received growth medium containing 1% FCS. 24 hours later, medium was removed, and cells received growth medium (1% FCS) containing Choline (100 mM) and Acetate (10 mM). Control cells received normal growth medium supplied with 1% FCS. 24 hours later, medium was removed, cells were washed with PBS and were irradiated with UVB in fresh PBS. Unirradiated control (Sham) cells grown in a second chamber were treated essentially equal but were not exposed to UVB. After irradiation, PBS was removed, and cells were treated with Choline/Acetate or control growth medium. 24 hours later, medium was removed, cells were washed with PBS and fixed with 2% paraformaldehyde. For immunofluorescence staining of ATP and the ATP5A subunit of the mitochondrial ATP synthase, cells were permeabilized with PBS containing 0.1% Triton X-100 and incubated with an anti-ATP antibody raised in rabbit (MyBioSource) and an anti-ATP5A antibody raised in mouse (Abcam) overnight at 4° C. […] Cells were incubated with anti-mouse and anti-rabbit secondary antibodies either labeled with a green (Alexa Fluor 488, Thermo Fisher) or with a red fluorescence dye (Alexa Fluor 594, Thermo Fisher) for 2 hours at room temperature. […] Slides were mounted using an anti-fade mounting medium (Southern Biotech) and analyzed with a fluorescence microscope (Zeiss).
As described herein above for FIG. 2 B, further primary normal human dermal fibroblasts (NHF) and XPA-deficient fibroblasts were grown on chamber glass slides (Sarstedt) in growth medium containing 15% FCS. […] Cells were incubated with anti-mouse and anti-rabbit secondary antibodies either labeled with a green (Alexa Fluor 488, Thermo Fisher) or with a red fluorescence dye (Alexa Fluor 594, Thermo Fisher) for 2 hours at room temperature. […] Slides were mounted using an anti-fade mounting medium (Southern Biotech) and analyzed with a fluorescence microscope (Zeiss). […]

[5] = system: primary CSB-deficient human fibroblasts; details: Example 2.1; Sham and UVB; Choline 100 mM, Acetate 10 mM, alone or combined; FIG. 11
Description: As described herein above for FIG. 2 B, primary NHF and CSB-deficient fibroblasts were grown on chamber glass slides (Sarstedt) in growth medium containing 15% FCS. 48 hours before UVB irradiation, medium was removed, cells were washed with PBS and received growth medium containing 1% FCS. 24 hours later, medium was removed, and cells received growth medium (1% FCS) containing either Choline (100 mM), Acetate (10 mM), or a combination of Choline (100 mM) and Acetate (10 mM) (Chol/Ac). Control cells received normal growth medium supplied with 1% FCS. 24 hours later, medium was removed, cells were washed with PBS and were irradiated with UVB (FIG. 11 B) in fresh PBS. Unirradiated control (Sham) cells (FIG. 11 A) grown in a second chamber were treated essentially equal but were not exposed to UVB. After irradiation, PBS was removed and cells were treated again with the respective compounds or control growth medium. 24 hours later, medium was removed, cells were washed with PBS and fixed with 2% paraformaldehyde. […] Cells were incubated with anti-mouse and anti-rabbit secondary antibodies either labeled with a green (Alexa Fluor 488, Thermo Fisher) or with a red fluorescence dye (Alexa Fluor 594, Thermo Fisher) for 2 hours at room temperature. […] Slides were mounted using an anti-fade mounting medium (Southern Biotech) and analyzed with a fluorescence microscope (Zeiss).

[6] = system: primary XPA-deficient human fibroblasts; test: Protein extraction and Western blot, XPA fibroblasts; assay type: cell-based; details: Choline 100 mM alone or with Acetate 10 mM; FIG. 4 A
Description: Histone samples were stored at −80° C.

[7] = system: primary XPA-deficient human fibroblasts; test: Apoptosis measurement (annexin V/propidium iodide flow cytometry); assay type: cell-based; details: Cisplatin 50 μM, 24 hours, XPA Control vs XPA Cisplatin; FIG. 1 B
Description: Primary human fibroblasts obtained from Xeroderma pigmentosum group A (XPA) patients and Cockayne Syndrome group B (CSB) patients were purchased from Coriell Institute (USA). Normal human fibroblasts (NHF) were isolated from skin samples obtained from healthy age-matched donors undergoing skin surgery. Cells were grown in Dulbecco's Modified Eagle Medium (DMEM) supplemented with 1% glutamine, antibiotics/antimycotics (growth medium) and 15% fetal calf serum (FCS) at 37° C. in a humidified atmosphere containing 5% CO2. For experiments, cells were detached from culture flasks by treatment with 0.05% trypsin solution (5 min/37° C.). After blocking trypsin activity by adding growth medium with 10% FCS, cells were spun down, resuspended in growth medium (15% FCS) and plated in appropriate culture dishes. Cells were allowed to grow until they reached around 80% confluency. […] Next day, cells were treated with the compounds Choline Chloride (here called Choline), or Sodium Acetate (here called Acetate), or both of them (both compounds were purchased from Sigma-Aldrich). […] Cells were analyzed by using a FACSCanto flow cytometry system. The percentage of early apoptotic cells defined as annexin V (+) and propidium iodide (-) was determined.

| SMILES | RNA levels of PKM1, PKM2, MT-ATP6, MT-ATP8, SOD2, AKR1B1, HSPA2, TFPI2 [1] | cellular ATP levels (anti-ATP antibody staining) [2] | cellular ATP levels (anti-ATP antibody staining) ([4]; Example 2, FIG. 2 B, FIG. 7 A) | RNA levels of CRYAB, HSPA2, ISYNA1 [1] | also measured |
| --- | --- | --- | --- | --- | --- |
| CC(=O)[O-].[Na+] [Acetate, Sodium Acetate] | does not increase RNA levels after UVB | no effect on cellular ATP abundance when given alone | no effect on cellular ATP abundance when given alone |  | RNA levels of SOD2, HSPA2 ([3]; 48 hours after UVB, Acetate 10 mM, FIG. 12): only little or even no effect on the RNA levels of the depicted genes |
| C[N+](C)(C)CCO.[Cl-] [Choline, Choline Chloride] | induced gene expression | accumulation of ATP in the cellular nuclei | accumulation of ATP in the cellular nuclei | induced gene expression of CRYAB, HSPA2 and ISYNA1 | cellular ATP levels (anti-ATP antibody staining) [5]: accumulation of ATP in the cellular nuclei; cellular ATP levels (anti-ATP antibody staining) ([4]; Example 2.1, Sham and UVB, FIG. 11): accumulation of ATP in the cellular nuclei; GLUT1 protein level [6]: equally increased |
| N.N.[Cl][Pt][Cl] [Cisplatin] |  |  |  |  | apoptosis induction by the DNA-damaging agent alone [7]: increased apoptosis (cell death) induction |
| COC(=O)CCC(=O)C(=O)OC [DMKG, Dimethyl-α-Ketoglutarate] |  |  |  | only little (or even no) effect on most RNA levels |  |
| CCCCCCC(=O)OCC(COC(=O)CCCCCC)OC(=O)CCCCCC [Triheptanoin] |  |  |  |  | RNA levels of AKR1B1, SOD2 ([3]; 24 hours after UVB, Triheptanoin 100 μM, FIG. 13): only little or even no positive effect on the RNA level of AKR1B1, and SOD2 |
